The target of this experiment is T1, EphA2 (Homo sapiens, UniProt P29317).
T1 construct: Methods: biotinylated extracellular domain (ECD)
In words: SPR; also receptor activation in cells. It counts as binding. (In general: SPR reads the build-up and loss of mass on a sensor chip optically.)

T1 sequence (P29317 28-206 limits assumed): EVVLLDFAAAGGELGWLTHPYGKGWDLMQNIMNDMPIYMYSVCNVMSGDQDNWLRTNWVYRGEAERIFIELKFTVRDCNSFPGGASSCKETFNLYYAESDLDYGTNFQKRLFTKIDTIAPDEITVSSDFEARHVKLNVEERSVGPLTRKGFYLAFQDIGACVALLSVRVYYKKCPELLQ

Broadly, the Kd is the constant that tells how readily two partners part at equilibrium. Take `COc1cc2nc(N3CCN(C(=O)C4COc5ccccc5O4)CC3)nc(N)c2cc1OC` (stereo not shown) [compound 11, doxazosin]: the Kd was found to be 47.6 µM.

(Values after publication PMC3419725, “A Small Molecule Agonist of EphA2 Receptor Tyrosine Kinase Inhibits Tumor Cell Migration In Vitro and Prostate Cancer Metastasis In Vivo” (PLoS ONE, 2012).)
